Drawing on patent US20220162191A1, “SMALL MOLECULE MODULATORS OF IL-17” (LEO PHARMA A/S, priority 2019, published 2022), this text covers EC50 for 17 molecules.

The test concerns the target T1, human IL-17AA (Homo sapiens, UniProt Q16552).
T1 construct: host or cells: HEK (human embryonic kidney) cells
T1 sequence (Q16552 24-155) 1: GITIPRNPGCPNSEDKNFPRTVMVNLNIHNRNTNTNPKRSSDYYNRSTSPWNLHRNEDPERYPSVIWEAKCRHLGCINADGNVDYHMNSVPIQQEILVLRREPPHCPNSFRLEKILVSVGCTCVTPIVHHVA
T1 sequence (Q16552 24-155) 2: T1 sequence (Q16552 24-155) 1
Put plainly: IL-8 release assay in human epithelial keratinocytes adult (HEKa). Format: cell-based. Conditions: 3 ng/ml human IL-17AA + 10 ng/ml human TNFalpha, 68-72 h, IL-8 by HTRF, read-out: Rel EC50 L-8 release assay. In outline:
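Adult human keratinocytes in Epilife with HKGS minus hydrocortisone, treated with compound then stimulated with final 3 ng/ml HEK-derived human IL-17AA plus 10 ng/ml TNF-alpha for 68–72 h at 37 °C; TNF-alpha alone defines 100% inhibition. Secreted IL-8 by HTRF; relative IC50 and Emax from four-parameter fits.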
Background: TR-FRET usually uses a lanthanide donor and a delayed reading to cut background.
As to `CN(C)[C@H]1CCN(c2cc(-c3ccc(Cl)c(CC(NC(=O)c4ccnn4C)C(=O)Nc4ccc(-c5cncn5C)cc4)c3)ccn2)C1` (stereo partly drawn) [Example 184, N-[1-[[2-chloro-5-[2-[(3S)-3-(dimethylamino)pyrrolidin-1-yl]-4-pyridyl]phenyl]methyl]-2-[4-(3-methylimidazol-4-yl)anilino]-2-oxo-ethyl]-2-methyl-pyrazole-3-carboxamide], the half-maximal effective concentration (EC50) (commonly the concentration needed to bring the measured effect to its halfway point) lay in the range of 100 to 1000 nM.
For `Cc1n[nH]c(C)c1-c1ccc(NC(=O)[C@@H](NC(=O)c2ccnn2C)[C@@H]2CCCc3ccc(-c4ccc5c(c4)CCN(C)C5)cc32)cc1` [Example 36, N-[(1S)-2-[4-(3,5-dimethyl-1H-pyrazol-4-yl)anilino]-1-[(1R)-7-(2-methyl-3,4-dihydro-1H-isoquinolin-6-yl)tetralin-1-yl]-2-oxo-ethyl]-2-methyl-pyrazole-3-carboxamide], the concentration for a half-maximal effect (EC50) was less than 100 nM.
`CN(CC1CC1)c1cc(-c2ccc(Cl)c(CC(NC(=O)c3ccnn3C)C(=O)Nc3ccc(-c4cncn4C)cc3)c2)ccn1` (centres unmarked) [Example 153, N-[1-[[2-chloro-5-[2-[cyclopropylmethyl(methyl)amino]-4-pyridyl]phenyl]methyl]-2-[4-(3-methylimidazol-4-yl)anilino]-2-oxo-ethyl]-2-methyl-pyrazole-3-carboxamide]: the EC50 was less than 100 nM.
With `Cc1cnn(C)c1-c1ccc(NC(=O)[C@H](Cc2cc(-c3ccc(=O)n(C(C)C)c3)ccc2Cl)NC(=O)c2cocn2)cc1` [Example 333, N-[(1S)-1-[[2-chloro-5-(1-isopropyl-6-oxo-3-pyridyl)phenyl]methyl]-2-[4-(2,4-dimethylpyrazol-3-yl)anilino]-2-oxo-ethyl]oxazole-4-carboxamide] the figure was greater than 1000 nM; with `Cc1cnn(C)c1-c1ccc(NC(=O)[C@H](Cc2cc(-c3ccc(=O)n(C(C)C)c3)ccc2Cl)NC(=O)c2cnco2)cc1` [Example 321, N-[(1S)-1-[[2-chloro-5-(1-isopropyl-6-oxo-3-pyridyl)phenyl]methyl]-2-[4-(2,4-dimethylpyrazol-3-yl)anilino]-2-oxo-ethyl]oxazole-5-carboxamide], greater than 1000 nM; with `Cc1nocc1C(=O)NC(Cc1cc(-c2cccc(C(=O)N(C)C3CC3)c2)ccc1Cl)C(=O)Nc1ccc(-c2nncn2C)cc1` (centres unmarked) [Example 107, N-[1-[[2-chloro-5-[3-[cyclopropyl(methyl)carbamoyl]phenyl]phenyl]methyl]-2-[4-(4-methyl-1,2,4-triazol-3-yl)anilino]-2-oxo-ethyl]-3-methyl-isoxazole-4-carboxamide], 100 to 1000 nM.
The value for `Cc1ncn(C)c1-c1ccc(NC(=O)[C@@H](NC(=O)c2ccnn2C)[C@@H]2CCCc3ccc(-c4ccc5c(c4)CNC5)cc32)cc1` [Example 42, N-[(1S)-2-[4-(3,5-dimethylimidazol-4-yl)anilino]-1-[(1R)-7-isoindolin-5-yltetralin-1-yl]-2-oxo-ethyl]-2-methyl-pyrazole-3-carboxamide] was 100 to 1000 nM; that for `Cc1cnn(C)c1-c1ccc(NC(=O)[C@@H](NC(=O)C2(F)CC2)[C@@H]2CCc3ccc(-c4ccnc(N5C[C@@H]6C[C@H]5CO6)c4)cc32)cc1O` [Example 369, N-[(1S)-2-[4-(2,4-dimethylpyrazol-3-yl)-3-hydroxy-anilino]-1-[(1R)-6-[2-[(1S,4S)-2-oxa-5-azabicyclo[2.2.1]heptan-5-yl]-4-pyridyl]indan-1-yl]-2-oxo-ethyl]-1-fluoro-cyclopropanecarboxamide] was less than 100 nM.
`Cc1cnn(C)c1-c1ccc(NC(=O)[C@@H](NC(=O)c2ccnn2C)[C@@H](c2cccc(-c3cc(N4C[C@@H]5C[C@H]4CO5)ncn3)c2)C2CC2)cc1` [Example 351, N-[(1S)-1-[(R)-cyclopropyl-[3-[6-[(1S,4S)-2-oxa-5-azabicyclo[2.2.1]heptan-5-yl]pyrimidin-4-yl]phenyl]methyl]-2-[4-(2,4-dimethylpyrazol-3-yl)anilino]-2-oxo-ethyl]-2-methyl-pyrazole-3-carboxamide]: the EC50 lay in the range of 100 to 1000 nM.
The value for `CC(C)n1cc(-c2ccc(Cl)c(C[C@H](NC(=O)C3(F)CCC3)C(=O)Nc3ccc(-c4nncn4C)cc3)c2)ccc1=O` [Example 148, N-[(1S)-1-[[2-chloro-5-(1-isopropyl-6-oxo-3-pyridyl)phenyl]methyl]-2-[4-(4-methyl-1,2,4-triazol-3-yl)anilino]-2-oxo-ethyl]-1-fluoro-cyclobutanecarboxamide] was greater than 1000 nM; that for `C[C@H]1CN(c2cc(-c3ccc(Cl)c(C[C@H](NC(=O)c4ccnn4C)C(=O)Nc4ccc(-c5cncn5C)cc4)c3)ccn2)CCN1` [Example 209, N-[(1S)-1-[[2-chloro-5-[2-[(3S)-3-methylpiperazin-1-yl]-4-pyridyl]phenyl]methyl]-2-[4-(3-methylimidazol-4-yl)anilino]-2-oxo-ethyl]-2-methyl-pyrazole-3-carboxamide] was 100 to 1000 nM; that for `Cn1cnnc1-c1ccc(NC(=O)C(Cc2cc(-c3ccc(O)c(C4=NCCCO4)c3)ccc2Cl)NC(=O)c2ccnn2C)cc1` (centres unmarked) [Example 178, N-[1-[[2-chloro-5-[3-(5,6-dihydro-4H-1,3-oxazin-2-yl)-4-hydroxy-phenyl]phenyl]methyl]-2-[4-(4-methyl-1,2,4-triazol-3-yl)anilino]-2-oxo-ethyl]-2-methyl-pyrazole-3-carboxamide] was 100 to 1000 nM.
The value for `Cc1n[nH]c(C)c1-c1ccc(NC(=O)[C@@H](NC(=O)C2(F)CC2)[C@@H]2CCc3ccc(-c4ccnc(N5C[C@H]6C[C@@H]5CO6)c4)cc32)cc1` [Example 362, N-[(1S)-2-[4-(3,5-dimethyl-1H-pyrazol-4-yl)anilino]-1-[(1R)-6-[2-[(1R,4R)-2-oxa-5-azabicyclo[2.2.1]heptan-5-yl]-4-pyridyl]indan-1-yl]-2-oxo-ethyl]-1-fluoro-cyclopropanecarboxamide] was less than 100 nM; that for `CC(C)n1cc(-c2ccc(Cl)c(CC(NC(=O)c3ccnn3C)C(=O)Nc3ccc(-c4nncn4C4CC4)cc3)c2)ccc1=O` (centres unmarked) [Example 72, N-[1-[[2-chloro-5-(1-isopropyl-6-oxo-3-pyridyl)phenyl]methyl]-2-[4-(4-cyclopropyl-1,2,4-triazol-3-yl)anilino]-2-oxo-ethyl]-2-methyl-pyrazole-3-carboxamide] was greater than 1000 nM; that for `Cc1n[nH]c(C)c1-c1ccc(NC(=O)[C@@H](NC(=O)C2(F)CC2)[C@@H]2CCc3ccc(-c4cc(C)c(=O)n(C(C)C)c4)cc32)cc1` [Example 357, N-[(1S)-2-[4-(3,5-dimethyl-1H-pyrazol-4-yl)anilino]-1-[(1R)-6-(1-isopropyl-5-methyl-6-oxo-3-pyridyl)indan-1-yl]-2-oxo-ethyl]-1-fluoro-cyclopropanecarboxamide] was less than 100 nM.
With `CC(C)n1cc(-c2ccc(Cl)c(C[C@H](NC(=O)OC(C)(C)C)C(=O)Nc3ccc(-c4nncn4C)cc3)c2)ccc1=O` [Example 86, tert-butyl N-[(1S)-1-[[2-chloro-5-(1-isopropyl-6-oxo-3-pyridyl)phenyl]methyl]-2-[4-(4-methyl-1,2,4-triazol-3-yl)anilino]-2-oxo-ethyl]carbamate] the figure was greater than 1000 nM; with `Cc1n[nH]c(C)c1-c1ccc(NC(=O)[C@H](Cc2cc(-c3cnn(C)c3C)ccc2Cl)NC(=O)C2(F)CC2)cc1` [Example 227, N-[(1S)-1-[[2-chloro-5-(1,5-dimethylpyrazol-4-yl)phenyl]methyl]-2-[4-(3,5-dimethyl-1H-pyrazol-4-yl)anilino]-2-oxo-ethyl]-1-fluoro-cyclopropanecarboxamide], 100 to 1000 nM.
